EP1001810B1, “PHARMACEUTICAL COMPOSITION WITH NEUROTROPHIC-LIKE BIOLOGICAL ACTIVITY” (McGill University, priority 1997, dated 1999)
Where a SMILES comes first, the peptide text is derived from it. Bridges are numbered along the chain shown (N, C = ends).

Legend:
TrkA = TrkA (Homo sapiens, UniProt P04629); conditions: binds TrkA specifically (LeSauteur 1995); read-out: apparent Kd; cited from earlier work
4-3.6 cells = assay: Cell survival in SFM challenged with tyrosine kinase inhibitor K252a; type: cell-based, rat; conditions: highest concentration tested (500 nM)
Method: 5,000 cells/well in protein-free media (PFHM-II, GIBCO, Toronto, Ontario) containing 0.1% BSA (Crystalline fraction V, Sigma, St. Louis MO) were added to 96 well plates (Falcon, Mississauga, Ontario). The cultures were untreated or supplemented with serial dilutions of neurotrophins (positive control), test mAbs, or mouse IgG (negative control). The survival profile of the cells was quantitated using the MTT colorimetric assay after 48-72 hours. Percent protection was standardized relative to 1 nM NGF concentrations using the MTT optical density (OD 590 nm) and following formula: [(ODtest -ODuntreated )/(OD1nM NGF-ODuntreated )] × 100. [formula] The OD of untreated samples (SFM only) were ~10% of 1 nM NGF control.
Some survival experiments were also carried out in the presence of various concentrations of the tyrosine kinase inhibitor K252a. The concentrations of K252a used were previously reported.
Assays were done as described in Table 1 legend. 4-3.6 cell survival in SFM achieved by incubation with the indicated ligands. Optimal ligand concentrations were used as per Table 3 (1 nM NGF, 5 nM 5C3 mAb and 5 nM 5C3 + 0.5 nM MC192 mAbs) . Cells were challenged with various concentrations of K252a and % survival was calculated using 1 nM NGF as 100% standard. K252a inhibits both NGF and mAb-mediated survival in a dose dependent manner and to a similar relative degree.

Sequence of TrkA (P04629 33-796, species assumed): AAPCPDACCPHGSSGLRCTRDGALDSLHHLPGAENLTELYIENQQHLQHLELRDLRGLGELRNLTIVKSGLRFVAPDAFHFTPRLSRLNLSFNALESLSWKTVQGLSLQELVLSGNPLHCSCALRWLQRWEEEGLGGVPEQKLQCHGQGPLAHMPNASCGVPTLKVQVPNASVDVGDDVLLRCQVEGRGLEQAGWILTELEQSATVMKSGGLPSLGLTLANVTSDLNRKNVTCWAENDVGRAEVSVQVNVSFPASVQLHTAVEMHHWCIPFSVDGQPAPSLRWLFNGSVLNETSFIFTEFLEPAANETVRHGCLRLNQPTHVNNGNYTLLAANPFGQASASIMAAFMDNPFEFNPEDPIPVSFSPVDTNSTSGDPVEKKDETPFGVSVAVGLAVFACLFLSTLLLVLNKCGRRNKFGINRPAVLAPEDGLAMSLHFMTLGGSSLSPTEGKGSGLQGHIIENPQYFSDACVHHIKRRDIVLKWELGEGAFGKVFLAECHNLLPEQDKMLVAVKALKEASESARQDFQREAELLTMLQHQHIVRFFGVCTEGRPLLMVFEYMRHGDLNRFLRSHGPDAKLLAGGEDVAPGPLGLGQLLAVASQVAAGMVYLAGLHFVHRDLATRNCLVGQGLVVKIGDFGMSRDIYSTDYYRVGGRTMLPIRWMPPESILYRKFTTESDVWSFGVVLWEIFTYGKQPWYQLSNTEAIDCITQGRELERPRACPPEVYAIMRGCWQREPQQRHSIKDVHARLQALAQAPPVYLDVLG

| Compound | Kd (TrkA) | toxicity to 4-3.6 cells (4-3.6 cells) |
| --- | --- | --- |
| CC(=O)N[C@@H](Cc1ccc(O)cc1)C(=O)N[C@H]1CSSC[C@@H](C(=O)N[C@@H](Cc2ccc(O)cc2)C(=O)O)NC(=O)[C@H](CCC(N)=O)NC(=O)[C@H](CCCCN)NC(=O)[C@H](CCC(=O)O)NC(=O)[C@H](CC(=O)O)NC(=O)[C@H]([C@@H](C)O)NC1=O [C(92-96)] (Ac-YCTDEKQCY-OH; disulfide 2-8) | ~100 nM |  |
| COC(=O)[C@@]1(O)C[C@H]2O[C@]1(C)n1c3ccccc3c3c4c(c5c6ccccc6n2c5c31)C(=O)NC4 [K252a] |  | not toxic |
